Converted amounts (≈) assume the structure as drawn.
Key:
[1] = system: dengue virus type 2; experiment: Antiviral activity against DENV2 infected in human A549 or golden hamster BHK21 cells preincubated with viral inoculum for 30 mins followed by viral inoculum removal after 1 hr and subsequently incubated with fresh medium containing compound and measured 8 hrs post-infection by luciferase reporter gene assay; format: functional, cell-based
[2] = system: Bovine viral diarrhea virus 1; experiment: Antiviral activity against BVDV; format: functional; settings: Bovine viral diarrhea virus isolates and strains
[3] = Cytotoxicity against human A549 cells by MTT assay; format: cell-based
[4] = Selectivity index, ratio of CC50 for golden hamster BHK21 cells to EC50 for DENV2
[5] = Selectivity index, ratio of CC50 for human A549 cells to EC50 for DENV2
[6] = Cytotoxicity against golden hamster BHK21 cells by MTT assay; format: cell-based, Mesocricetus auratus, BHK-21
[7] = Aqueous solubility of the compound in buffer at pH 6.4 after 48 hrs UV spectroscopy based shake flask method; format: physicochemical
[8] = Aqueous solubility of the compound in buffer at pH 2.0 after 48 hrs UV spectroscopy based shake flask method; format: physicochemical
[9] = Aqueous solubility of the compound in buffer at pH 7.4 after 48 hrs UV spectroscopy based shake flask method; format: physicochemical
[10] = Stability of the compound in pH 7.4 PBS buffer after 24 to 48 hrs by chromatographic method; format: physicochemical

| SMILES | EC50 [1] [µM] | EC50 [2] [µM] | CC50 [3] [µM] | Ratio CC50/EC50 [4] | Ratio CC50/EC50 [5] | CC50 [6] [µM] | solubility thermodynamic at 48 h [7] [µg/mL] | solubility thermodynamic at 48 h [8] [µg/mL] | solubility thermodynamic at 48 h [9] [µg/mL] | Stability [10] [h] |
| --- | --- | --- | --- | --- | --- | --- | --- | --- | --- | --- |
| O=C(Nc1ccccc1OCc1ccc(Cl)c(Cl)c1)c1ccco1 | 22.7 | > 50 | > 100 | >5 | >5 | > 100 |  |  |  |  |
| O=C(NC(=S)N1CCc2ccccc21)c1ccc(C#Cc2ccccc2)nc1 | 28.7 | > 50 | > 100 | >4 | >4 | > 100 |  |  |  |  |
| O=C(CSCC(=O)Nc1ccc(OC(F)(F)F)cc1)NNC(=S)Nc1ccccc1 | 5.1 | > 50 | > 100 | >20 | >20 | > 100 | 13.1 (≈ 28.6 µM) | 8.2 (≈ 17.9 µM) | 1.2 (≈ 2.62 µM) | > 48 |
| O=C(Nc1ccc(Oc2ncnc3cc(Cl)ccc23)nc1)c1ccc(-c2ccccn2)s1 | 3.1 | > 50 | > 100 | >32 | >32 | > 100 | 10.1 (≈ 22 µM) | 12.7 (≈ 27.6 µM) | 2.9 (≈ 6.31 µM) | > 48 |
| O=C1Nc2ccc(Cl)cc2[C@@](C#CC2CC2)(C(F)(F)F)O1 [EFAVIRENZ] |  |  |  |  |  |  | 68.3 (≈ 216 µM) |  |  |  |
| CN1C(C(=O)Nc2ccccn2)=C(O)c2ccccc2S1(=O)=O [PIROXICAM] |  |  |  |  |  |  | 7.3 (≈ 22 µM) |  |  |  |

Source: ChEMBL document CHEMBL4052729, “Discovery of novel dengue virus entry inhibitors via a structure-based approach” (Bioorg Med Chem Lett, 2017)
